Laboratory results: US20240400561A1, “NOVEL SUBSTITUTED SULFONYLUREA COMPOUNDS AS INHIBITORS OF INTERLEUKIN-1 ACTIVITY” (Viva Star Biosciences (Suzhou) Co., Ltd., priority 2021, published 2024)

molecular target: T1, NLRP3 (Homo sapiens, UniProt Q96P20); assay: THP-1 cell assay (LPS priming, nigericin), IL1β release by HTRF; called pyroptosis assay, THP IC50; assay type: cell-based; conditions: NLRP3 inhibitory activity; THP-1 cells, 1.0 ug/mL LPS, compound 3 hrs, nigericin 5 uM 1 hr, IL1β in supernatant
T1 construct: Seed THP-1 cells (5.56*10^5 cells/mL) containing 1.0 ug/mL LPS; endogenous in cells; host or cells: THP-1 cells
T1 sequence (Q96P20 whole entry): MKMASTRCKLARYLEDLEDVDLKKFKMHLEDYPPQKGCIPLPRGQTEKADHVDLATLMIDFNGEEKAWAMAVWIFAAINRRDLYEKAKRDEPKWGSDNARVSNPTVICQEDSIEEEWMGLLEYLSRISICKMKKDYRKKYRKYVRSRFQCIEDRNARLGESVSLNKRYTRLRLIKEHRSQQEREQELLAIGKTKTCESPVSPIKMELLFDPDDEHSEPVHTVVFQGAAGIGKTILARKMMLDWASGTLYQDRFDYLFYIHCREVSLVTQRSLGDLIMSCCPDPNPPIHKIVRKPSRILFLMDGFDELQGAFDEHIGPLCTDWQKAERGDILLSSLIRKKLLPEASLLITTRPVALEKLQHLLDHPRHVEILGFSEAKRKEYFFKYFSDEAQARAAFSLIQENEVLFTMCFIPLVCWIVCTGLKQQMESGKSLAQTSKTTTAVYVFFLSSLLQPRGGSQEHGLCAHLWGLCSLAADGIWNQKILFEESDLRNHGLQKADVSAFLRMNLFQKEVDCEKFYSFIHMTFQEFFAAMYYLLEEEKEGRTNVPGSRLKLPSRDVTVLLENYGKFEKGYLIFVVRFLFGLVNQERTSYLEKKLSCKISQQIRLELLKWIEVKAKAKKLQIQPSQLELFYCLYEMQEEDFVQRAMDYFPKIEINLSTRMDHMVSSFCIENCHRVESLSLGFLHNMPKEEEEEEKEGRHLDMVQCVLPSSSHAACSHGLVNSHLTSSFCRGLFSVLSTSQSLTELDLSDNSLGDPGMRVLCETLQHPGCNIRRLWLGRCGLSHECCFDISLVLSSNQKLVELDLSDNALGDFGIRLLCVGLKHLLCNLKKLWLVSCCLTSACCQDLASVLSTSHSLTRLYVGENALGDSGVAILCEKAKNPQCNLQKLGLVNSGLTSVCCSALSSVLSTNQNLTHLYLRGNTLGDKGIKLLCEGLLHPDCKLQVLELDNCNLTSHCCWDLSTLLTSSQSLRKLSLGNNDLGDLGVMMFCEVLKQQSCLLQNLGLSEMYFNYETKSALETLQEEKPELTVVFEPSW
Protocol: The following method was used for compound screening. • 1. Seed THP-1 cells (5.56*10^5 cells/mL) containing 1.0 ug/mL LPS (SIGMA, L6529) in 45 uL RPMI 1640 medium (without FBS) into 384-well plate (Thermo Scientific, 164688). • 2. Add 5 uL compound (10 doses starting from 5 uM, 1:3 dilution) or vehicle (0.05% DMSO in medium) to the appropriate wells. • 3. Centrifuge the plates at 1000 rpm for 2 mins and incubate for 3 hrs at 37° C., 5% CO2. • 4. Add 5 uL nigericin (MEC, HY-100381) (final conc. 5 uM) to sample wells and positive control wells; add 5 uL RPMI 1640 medium to negative control wells. • 5. Centrifuge plates at 1000 rpm for 2 mins and incubate for 1 hr at 37° C., 5% CO2. • 6. At the end of the incubation period, centrifuge plates at 1000 rpm for 6 mins and transfer 8 uL supernatant into 384-well assay plates (PerkinElmer, 6008280). • 7. Add 8 ul RPMI 1640 medium into each well and spin down for 10 secs. • 8. Prepare the standard solutions and pre-mixed IL1β antibody solution of Human […] kits (PerkinElmer, 62HIL1BPEH) according to the instruction. • 9. Add 16 uL standard solutions into clear wells of 384-well assay plates. • 10. Add 4 uL pre-mixed IL1β antibody solution to all wells including sample wells, positive control wells, negative control wells and standard solutions wells. • 11. Seal the plates, spin down for 10 secs, incubation for overnight at RT and read on an HTRF® compatible reader (BMG LABTECH, PHERAstar FS). • 12. The concentrations of IL1β for treated wells are calculated by the standard curve. • 13. The IC50 data is fitted to a non-liner regression equation (log inhibitor vs. response—Variable slope four parameters)).

Row | Structure (SMILES) | IC50 [nM]
1 | CC(C)(O)c1csc(S(=O)(=O)NC(=O)Nc2c3c(cc(Cl)c2-c2ccn4cncc4c2)CCC3)c1 [Example 71, N-((6-chloro-5-(imidazo[1,5-a]pyridin-7-yl)-2,3-dihydro-1H-inden-4-yl)carbamoyl)-4-(2-hydroxypropan-2-yl)thiophene-2-sulfonamide] | ≤ 30
2 | Cc1cc2c(c(NC(=O)NS(=O)(=O)c3cnn(CC4CC4)c3)c1-c1ccc3cncn3c1)CCC2 [Example 20, 1-(cyclopropylmethyl)-N-((5-(imidazo[1,5-a]pyridin-6-yl)-6-methyl-2,3-dihydro-1H-inden-4-yl)carbamoyl)-1H-pyrazole-4-sulfonamide] | 30 to 300
3 | Cc1cc2c(c(NC(=O)NS(=O)(=O)c3cnn(CC4CC4)c3)c1-c1ccc3ccnn3c1)CCC2 [Example 21, 1-(cyclopropylmethyl)-N-((6-methyl-5-(pyrazolo[1,5-a]pyridin-6-yl)-2,3-dihydro-1H-inden-4-yl)carbamoyl)-1H-pyrazole-4-sulfonamide] | ≤ 30
4 | CC(C)(O)c1csc(S(=O)(=O)NC(=O)Nc2c(-c3ccc4nccn4c3)ccc3c2OCO3)c1 [Example 65, 4-(2-hydroxypropan-2-yl)-N-((5-(imidazo[1,2-a]pyridin-6-yl)benzo[d][1,3]dioxol-4-yl)carbamoyl)thiophene-2-sulfonamide] | 30 to 300
5 | Cc1cc2c(c(NC(=O)NS(=O)(=O)c3ccnc(N4CCOCC4)c3)c1-c1ccn3nccc3c1)CCC2 [Example 32, N-((6-methyl-5-(pyrazolo[1,5-a]pyridin-5-yl)-2,3-dihydro-1H-inden-4-yl)carbamoyl)-2-morpholinopyridine-4-sulfonamide] | ≤ 30
6 | Cc1cc2c(c(NC(=O)NS(=O)(=O)c3ccn(C[C@@H]4CCO4)n3)c1-c1ccc3ccnn3c1)CCC2 [Example 95, (S)—N-((6-methyl-5-(pyrazolo[1,5-a]pyridin-6-yl)-2,3-dihydro-1H-inden-4-yl)carbamoyl)-1-(oxetan-2-ylmethyl)-1H-pyrazole-3-sulfonamide] | 30 to 300
7 | CC(C)(O)c1csc(S(=O)(=O)NC(=O)Nc2c(-c3ccc4ncnn4c3)ccc3c2CCC3)c1 [Example 52, N-((5-([1,2,4]triazolo[1,5-a]pyridin-6-yl)-2,3-dihydro-1H-inden-4-yl)carbamoyl)-4-(2-hydroxypropan-2-yl)thiophene-2-sulfonamide] | ≤ 30
8 | Cc1cc2c(c(NC(=O)NS(=O)(=O)c3cnn(CC4CC4)c3)c1-c1ccn3ccnc3c1)CCC2 [Example 18, 1-(cyclopropylmethyl)-N-((5-(imidazo[1,2-a]pyridin-7-yl)-6-methyl-2,3-dihydro-1H-inden-4-yl)carbamoyl)-1H-pyrazole-4-sulfonamide] | ≤ 30
9 | CC(C)(O)c1csc(S(=O)(=O)NC(=O)Nc2c(-c3cnc4[nH]ccc4c3)ccc3c2CCC3)c1 [Example 46, N-((5-(1H-pyrrolo[2,3-b]pyridin-5-yl)-2,3-dihydro-1H-inden-4-yl)carbamoyl)-4-(2-hydroxypropan-2-yl)thiophene-2-sulfonamide] | 30 to 300
10 | CN(c1cncc(S(=O)(=O)NC(=O)Nc2c(-c3ccn4nccc4c3)ccc3c2CCC3)c1)C1CC1 [Example 30, 5-(cyclopropyl(methyl)amino)-N-((5-(pyrazolo[1,5-a]pyridin-5-yl)-2,3-dihydro-1H-inden-4-yl)carbamoyl)pyridine-3-sulfonamide] | 30 to 300
11 | O=C(Nc1c(-c2ccnc3[nH]ccc23)ccc2c1CCC2)NS(=O)(=O)c1cnn(CC2CC2)c1 [Example 5, N-((5-(1H-pyrrolo[2,3-b]pyridin-4-yl)-2,3-dihydro-1H-inden-4-yl)carbamoyl)-1-(cyclopropylmethyl)-1H-pyrazole-4-sulfonamide] | ≤ 30
12 | Cc1cc2c(c(NC(=O)NS(=O)(=O)c3cc(C(C)(C)O)cs3)c1-c1ccn3cncc3c1)CCC2 [Example 69, 4-(2-hydroxypropan-2-yl)-N-((5-(imidazo[1,5-a]pyridin-7-yl)-6-methyl-2,3-dihydro-1H-inden-4-yl)carbamoyl)thiophene-2-sulfonamide] | ≤ 30
13 | O=C(Nc1c2c(cc(F)c1-c1ccn3nccc3c1)CCC2)NS(=O)(=O)c1ccn(C2CC2)n1 [Example 25, 1-cyclopropyl-N-((6-fluoro-5-(pyrazolo[1,5-a]pyridin-5-yl)-2,3-dihydro-1H-inden-4-yl)carbamoyl)pyrazole-3-sulfonamide] | ≤ 30
14 | CC(C)(O)c1csc(S(=O)(=O)NC(=O)Nc2c(-c3cncc4[nH]ccc34)ccc3c2CCC3)c1 [Example 45, N-((5-(1H-pyrrolo[2,3-c]pyridin-4-yl)-2,3-dihydro-1H-inden-4-yl)carbamoyl)-4-(2-hydroxypropan-2-yl)thiophene-2-sulfonamide] | 300 to 1000
15 | Cc1cc2c(c(NC(=O)NS(=O)(=O)c3cnn(CC4CC4)c3)c1-c1ccnc3[nH]ccc13)CCC2 [Example 8, 1-(cyclopropylmethyl)-N-((6-methyl-5-(1H-pyrrolo[2,3-b]pyridin-4-yl)-2,3-dihydro-1H-inden-4-yl)carbamoyl)-1H-pyrazole-4-sulfonamide] | ≤ 30
16 | CC(C)(O)c1csc(S(=O)(=O)NC(=O)Nc2c3c(cc(C#N)c2-c2ccn4cncc4c2)CCC3)c1 [Example 2, N-((6-cyano-5-(imidazo[1,5-a]pyridin-7-yl)-2,3-dihydro-1H-inden-4-yl)carbamoyl)-4-(2-hydroxypropan-2-yl)thiophene-2-sulfonamide] | ≤ 30

Next, values leading:

Row | IC50 [nM] | Structure (SMILES)
17 | ≤ 30 | Cc1cc2c(c(NC(=O)NS(=O)(=O)c3ccn(CC4CC4)n3)c1-c1ccn3nccc3c1)CCC2 [Example 10, 1-(cyclopropylmethyl)-N-((6-methyl-5-(pyrazolo[1,5-a]pyridin-5-yl)-2,3-dihydro-1H-inden-4-yl)carbamoyl)-1H-pyrazole-3-sulfonamide]
18 | ≤ 30 | Cc1cc2c(c(NC(=O)NS(=O)(=O)c3ccn(C4CC(O)C4)n3)c1-c1ccn3nccc3c1)CCC2 (centres unmarked) [Example 76, 1-(3-hydroxycyclobutyl)-N-((6-methyl-5-(pyrazolo[1,5-a]pyridin-5-yl)-2,3-dihydro-1H-inden-4-yl)carbamoyl)-1H-pyrazole-3-sulfonamide]
19 | ≤ 30 | Cc1cc2c(c(NC(=O)NS(=O)(=O)c3cc(OC4CC4)cnn3)c1-c1ccn3nccc3c1)CCC2 [Example 81, 5-cyclopropoxy-N-((6-methyl-5-(pyrazolo[1,5-a]pyridin-5-yl)-2,3-dihydro-1H-inden-4-yl)carbamoyl)-1H-pyridazine-3-sulfonamide]
20 | ≤ 30 | Cc1cc2c(c(NC(=O)NS(=O)(=O)c3cc(C(O)C4CC4)n(C)n3)c1-c1ccn3nccc3c1)CCC2 (centres unmarked) [Example 16, 5-(cyclopropyl(hydroxy)methyl)-1-methyl-N-((6-methyl-5-(pyrazolo[1,5-a]pyridin-5-yl)-2,3-dihydro-1H-inden-4-yl)carbamoyl)-1H-pyrazole-3-sulfonamide]
21 | ≤ 30 | O=C(Nc1c2c(cc(F)c1-c1ccn3nccc3c1)CCC2)NS(=O)(=O)c1ccn(CC2CC2)n1 [Example 24, 1-(cyclopropylmethyl)-N-((6-fluoro-5-(pyrazolo[1,5-a]pyridin-5-yl)-2,3-dihydro-1H-inden-4-yl)carbamoyl)-1H-pyrazole-3-sulfonamide]
22 | 30 to 300 | Cc1cc2c(c(NC(=O)NS(=O)(=O)c3ccn(CC4CC4)n3)c1-c1ccn3nccc3c1)OCC2 [Example 86, 1-(cyclopropylmethyl)-N-((5-methyl-6-(pyrazolo[1,5-a]pyridin-5-yl)-2,3-dihydrobenzofuran-7-yl)carbamoyl)-1H-pyrazole-3-sulfonamide]
23 | 30 to 300 | Cc1c(-c2ccc3c(c2NC(=O)NS(=O)(=O)c2cc(C(C)(C)O)cs2)CCC3)ccn2cncc12 [Example 73, 4-(2-hydroxypropan-2-yl)-N-((5-(8-methylimidazo[1,5-a]pyridin-7-yl)-2,3-dihydro-1H-inden-4-yl)carbamoyl)thiophene-2-sulfonamide]
24 | > 2000 | Cc1cc2c(c(NC(=O)NS(=O)(=O)c3ccn([C@@H]4CC[C@@H]4O)n3)c1-c1ccn3nccc3c1)CCC2 (relative stereo) [Example 85, 1-(rel-(1R,2S)-2-hydroxycyclobutyl)-N-((6-methyl-5-(pyrazolo[1,5-a]pyridin-5-yl)-2,3-dihydro-1H-inden-4-yl)carbamoyl)-1H-pyrazole-3-sulfonamide]
25 | 300 to 1000 | Cn1ccc2c(-c3ccc4c(c3NC(=O)NS(=O)(=O)c3cc(C(C)(C)O)cs3)CCC4)cncc21 [Example 47, 4-(2-hydroxypropan-2-yl)-N-((5-(1-methyl-1H-pyrrolo[2,3-c]pyridin-4-yl)-2,3-dihydro-1H-inden-4-yl)carbamoyl)thiophene-2-sulfonamide]
26 | 300 to 1000 | CC(C)(O)c1csc(S(=O)(=O)NC(=O)Nc2c(-c3ccc4nncn4c3)ccc3c2CCC3)c1 [Example 61]
